# Laboratory results published in patent US20070082880A1 (priority 2005, published 2007).
# pIC50: −log10 of the molar value.
# Molecular target: T1, human PKCθ full length enzyme (Homo sapiens, UniProt Q04759)
# T1 construct: human PKCθ full length enzyme (Panvera Catalog No. P2996); purchased Panvera P2996
# Assay: PKCθ IMAP Assay
# Assay type: biochemical
# Details: average value when one or more samples were tested; ATP 6 uM, PKCθ 1 nM
# Summary of the method: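 IMAP fluorescence polarization after 20 min with binding beads measured phosphorylation of 100 nM 5FAM-peptide. Reactions held 1 nM full-length human PKCθ, 6 uM ATP, 5% DMSO and DTT-containing buffer, 25 min at room temperature. Compounds tested as 2:1 serial dilutions; controls lacked ATP or enzyme.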
# T1 sequence (Q04759 whole entry): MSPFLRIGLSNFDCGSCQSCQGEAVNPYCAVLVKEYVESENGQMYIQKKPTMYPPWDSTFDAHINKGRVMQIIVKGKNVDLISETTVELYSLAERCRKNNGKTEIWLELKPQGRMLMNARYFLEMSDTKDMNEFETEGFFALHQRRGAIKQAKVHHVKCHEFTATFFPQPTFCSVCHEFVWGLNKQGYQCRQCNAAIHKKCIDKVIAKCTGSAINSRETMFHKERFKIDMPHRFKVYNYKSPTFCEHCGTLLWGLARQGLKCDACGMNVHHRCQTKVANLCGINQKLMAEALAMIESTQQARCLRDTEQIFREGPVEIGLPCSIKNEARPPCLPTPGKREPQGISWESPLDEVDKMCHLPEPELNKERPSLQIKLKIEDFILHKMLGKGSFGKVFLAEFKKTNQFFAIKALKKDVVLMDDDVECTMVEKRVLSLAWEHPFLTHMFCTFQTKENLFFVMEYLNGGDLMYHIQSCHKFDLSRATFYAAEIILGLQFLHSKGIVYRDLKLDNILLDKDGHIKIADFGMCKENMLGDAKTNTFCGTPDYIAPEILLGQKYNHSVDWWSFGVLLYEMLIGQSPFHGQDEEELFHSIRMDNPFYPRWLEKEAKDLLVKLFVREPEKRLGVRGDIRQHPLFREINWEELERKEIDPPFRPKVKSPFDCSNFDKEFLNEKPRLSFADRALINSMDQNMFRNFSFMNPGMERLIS
row,Structure (SMILES),pIC50
1,"Cc1c(Nc2c(C#N)cnc3sc(-c4cnccn4)cc23)ccc2[nH]ccc12 [Compound 504, 4-[(4-methyl-1H-indol-5-yl)amino]-2-pyrazin-2-ylthieno[2,3-b]pyridine-5-carbonitrile]",7.68
2,"Cc1c(Nc2c(C#N)cnc3sc(-c4cccc5[nH]ccc45)cc23)ccc2[nH]ccc12 [Compound 505, 2-(1H-indol-4-yl)-4-[(4-methyl-1H-indol-5-yl)amino]thieno[2,3-b]pyridine-5-carbonitrile]",6.95
3,"Cc1c(Nc2c(C#N)cnc3sc(-c4cncnc4)cc23)ccc2[nH]ccc12 [Compound 506, 4-[(4-methyl-1H-indol-5-yl)amino]-2-pyrimidin-5-ylthieno[2,3-b]pyridine-5-carbonitrile]",7.77
4,"N#Cc1cnc2sc(I)cc2c1Nc1cnc2[nH]ccc2c1Cl [Compound 507, 4-[(4-chloro-1H-pyrrolo[2,3-b]pyridin-5-yl)amino]-2-iodothieno[2,3-b]pyridine-5-carbonitrile]",7.16
5,"Cc1c(Nc2c(C#N)cnc3scc(-c4cccc(CN(C)C)c4)c23)ccc2[nH]ccc12 [Compound 508, 3-{3-[(dimethylamino)methyl]phenyl}-4-[(4-methyl-1H-indol-5-yl)amino]thieno[2,3-b]pyridine-5-carbonitrile]",7.96
6,"Cc1c(Nc2c(C#N)cnc3sc(-c4cccc(NS(=O)(=O)N(C)C)c4)cc23)ccc2[nH]ccc12 [Compound 509, N′-(3-{5-cyano-4-[(4-methyl-1H-indol-5-yl)amino]thieno[2,3-b]pyridin-2-yl}phenyl)-N,N-dimethylsulfamide]",7.29
7,"Cc1c(Nc2c(C#N)cnc3sc(-c4cccc(S(=O)(=O)NCCO)c4)cc23)ccc2[nH]ccc12 [Compound 510, 3-{5-cyano-4-[(4-methyl-1H-indol-5-yl)amino]thieno[2,3-b]pyridin-2-yl}-N-(2-hydroxyethyl)benzenesulfonamide]",7.77
8,"Cc1c(Nc2c(C#N)cnc3sc(-c4cc(C(=O)N(C)C)ccc4F)cc23)ccc2[nH]ccc12 [Compound 511, 3-{5-cyano-4-[(4-methyl-1H-indol-5-yl)amino]thieno[2,3-b]pyridin-2-yl}-4-fluoro-N,N-dimethylbenzamide]",7.18
9,"Cc1c(Nc2c(C#N)cnc3sc(-c4cc(F)cc(C(=O)N(C)C)c4)cc23)ccc2[nH]ccc12 [Compound 512, 3-{5-cyano-4-[(4-methyl-1H-indol-5-yl)amino]thieno[2,3-b]pyridin-2-yl}-5-fluoro-N,N-dimethylbenzamide]",7.42
10,"COCCOc1ccc(-c2cc3c(Nc4ccc5[nH]ccc5c4C)c(C#N)cnc3s2)cc1OCCOC [Compound 513, 2-[3,4-bis(2-methoxyethoxy)phenyl]-4-[(4-methyl-1H-indol-5-yl)amino]thieno[2,3-b]pyridine-5-carbonitrile]",5.79
11,"COc1ccc(C=O)c(-c2cc3c(Nc4ccc5[nH]ccc5c4C)c(C#N)cnc3s2)c1 [Compound 514, 2-(2-formyl-5-methoxyphenyl)-4-[(4-methyl-1H-indol-5-yl)amino]thieno[2,3-b]pyridine-5-carbonitrile]",7.15
12,"COc1ccc(CN(C)C)c(-c2cc3c(Nc4ccc5[nH]ccc5c4C)c(C#N)cnc3s2)c1 [Compound 515, 2-{2-[(dimethylamino)methyl]-5-methoxyphenyl}-4-[(4-methyl-1H-indol-5-yl)amino]thieno[2,3-b]pyridine-5-carbonitrile]",7.80
13,"CC(C)c1c(-c2cccc(CN(C)C)c2)sc2ncc(C#N)c(Nc3ccc4[nH]ccc4c3)c12 [Compound 516, 2-{3-[(dimethylamino)methyl]phenyl}-4-(1H-indol-5-ylamino)-3-isopropylthieno[2,3-b]pyridine-5-carbonitrile]",5.92
14,"COc1ccc(CNCCO)cc1-c1cc2c(Nc3ccc4[nH]ccc4c3C)c(C#N)cnc2s1 [Compound 517, 2-(5-{[(2-hydroxyethyl)amino]methyl}-2-methoxyphenyl)-4-[(4-methyl-1H-indol-5-yl)amino]thieno[2,3-b]pyridine-5-carbonitrile]",8.70
15,"Cc1c(Nc2c(C#N)cnc3sc(-c4ccc(F)c(C(=O)N(C)C)c4)cc23)ccc2[nH]ccc12 [Compound 518, 5-{5-cyano-4-[(4-methyl-1H-indol-5-yl)amino]thieno[2,3-b]pyridin-2-yl}-2-fluoro-N,N-dimethylbenzamide]",7.23
16,"Cc1c(Nc2c(C#N)cnc3sc(-c4cccc(N5CCCS5(=O)=O)c4)cc23)ccc2[nH]ccc12 [Compound 519, 2-[3-(1,1-dioxidoisothiazolidin-2-yl)phenyl]-4-[(4-methyl-1H-indol-5-yl)amino]thieno[2,3-b]pyridine-5-carbonitrile]",7.31
17,"Cc1c(Nc2c(C#N)cnc3sc(-c4ccc5[nH]ccc5c4)cc23)ccc2[nH]ccc12 [Compound 520, 2-(1H-indol-5-yl)-4-[(4-methyl-1H-indol-5-yl)amino]thieno[2,3-b]pyridine-5-carbonitrile]",7.13
18,"Cc1c(Nc2c(C#N)cnc3sc(-c4ccc5cc[nH]c5c4)cc23)ccc2[nH]ccc12 [Compound 521, 2-(1H-indol-6-yl)-4-[(4-methyl-1H-indol-5-yl)amino]thieno[2,3-b]pyridine-5-carbonitrile]",7.43
19,"Cc1ccc(S(=O)(=O)n2ccc3c(Cl)c(Nc4c(C#N)cnc5sc(I)cc45)cnc32)cc1 [Compound 522, 4-({4-chloro-1-[(4-methylphenyl)sulfonyl]-1H-pyrrolo[2,3-b]pyridin-5-yl}amino)-2-iodothieno[2,3-b]pyridine-5-carbonitrile]",4.85
20,"Cc1c(Nc2c(C#N)cnc3sc(-c4cccnn4)cc23)ccc2[nH]ccc12 [Compound 523, 4-[(4-methyl-1H-indol-5-yl)amino]-2-pyridazin-3-ylthieno[2,3-b]pyridine-5-carbonitrile]",7.82
21,"N#Cc1cnc2sc(-c3ccccc3)cc2c1Nc1cnc2[nH]ccc2c1Cl [Compound 524, 4-[(4-chloro-1H-pyrrolo[2,3-b]pyridin-5-yl)amino]-2-phenylthieno[2,3-b]pyridine-5-carbonitrile]",7.32
22,"COc1c(C=O)cccc1-c1cc2c(Nc3ccc4[nH]ccc4c3C)c(C#N)cnc2s1 [Compound 525, 2-(3-formyl-2-methoxyphenyl)-4-[(4-methyl-1H-indol-5-yl)amino]thieno[2,3-b]pyridine-5-carbonitrile]",7.82
23,"COc1c(CN(C)C)cccc1-c1cc2c(Nc3ccc4[nH]ccc4c3C)c(C#N)cnc2s1 [Compound 526, 2-{3-[(dimethylamino)methyl]-2-methoxyphenyl}-4-[(4-methyl-1H-indol-5-yl)amino]thieno[2,3-b]pyridine-5-carbonitrile]",7.92
24,"Cc1c(Nc2c(C#N)cnc3sc(-c4ccnn4C)cc23)ccc2[nH]ccc12 [Compound 527, 4-[(4-methyl-1H-indol-5-yl)amino]-2-(1-methyl-1H-pyrazol-5-yl)thieno[2,3-b]pyridine-5-carbonitrile]",7.46

# Tested on: not given
# Assay: not given
# Details: not given
row,Structure (SMILES),melting point
1,Cl.N#Cc1cnc2sc(I)cc2c1Nc1ccc2[nH]ccc2c1,250 to 252 °C
2,Cl.N#Cc1cnc2sc(I)cc2c1Nc1cccc2[nH]ccc12,> 245 °C
3,Br.N#Cc1cnc2scc(Br)c2c1Nc1ccc2[nH]ccc2c1,249 to 251 °C
4,Cc1c(Nc2c(C#N)cnc3sc(C#C[Si](C)(C)C)cc23)ccc2[nH]ccc12,258 to 260 °C
